# Earlier results as cited in patent US20220160670A1, “COMPOSITION COMPRISING L-CARNITINE FOR THE TREATMENT OF MALE INFERTILITY” (LABORATOIRE DES GRANIONS, priority 2017, published 2022).
# Key:
# [1] = test system: total forward motility of spermatozoa; settings: treatment of 6 months; 3 g/day L-carnitine, 3 g/day L-acetylcarnitine, or 2 g/day + 1 g/day combined
# [2] = test system: number and total forward motility of spermatozoa; settings: 2 g/day for 2*2 months; patients with 10 to 20 million/ml and total mobility 10% to 30% at inclusion
smiles,measurement,setting,value
CC(=O)O[C@H](CC(=O)[O-])C[N+](C)(C)C [L-acetylcarnitine],effect on total forward motility of spermatozoa,[1],significantly increases
C[N+](C)(C)C[C@H](O)CC(=O)[O-] [L-carnitine],effect on total forward motility of spermatozoa,[1],significantly increases
same,effect on number of spermatozoa,[2],increase
same,effect on total forward motility of spermatozoa,[2],increase
